# Measured values taken from patent US20090275753A1, “ORTHO-SUBSTITUTED ANILINE DERIVATIVE AND ANTIOXIDANT DRUG” (NIPPON SODA CO., LTD., priority 2005, published 2009).
# How the values were obtained:
# [1] = test system: lipid peroxidation in pig retina homogenate; test: Test for evaluating in vitro inhibition of lipid peroxidation (thiobarbituric acid method); format: biochemical; settings: 500 μM cysteine and 5 μM FeSO4, 30 minutes at 37° C., malondialdehyde, read-out: in vitro inhibition of lipid peroxidation (50% inhibition concentration IC50)
# Procedure: (Test for Evaluating in vitro Inhibition of Lipid Peroxidation)
# Evaluation of the in vitro inhibition of lipid peroxidation of the compound of the present invention was conducted in accordance with the method disclosed by Malvy et al. (Malvy, C., et al., Biochemical and Biophysical Research Communications, 1980, vol. 95, pp. 734 to 737).
# As the organ, retinas that had been separated from pig eyeballs and subsequently stored at −80° C. were used. At the time of use, a 5-fold excess of a phosphate-buffered physiological saline solution (pH 7.4) was added, and the mixture was homogenized using a microhomogenizer (PHYSCOTRON, NITI-ON).
# To this pig retina homogenate were added 0.15M KCl, the compound of the present invention, 500 μM cysteine and 5 μM FeSO4, and the mixture was then incubated for 30 minutes at 37° C.
# The malondialdehyde generated upon decomposition of the lipid peroxide was measured using the thiobarbituric acid method. Based on the measured values, the 50% inhibition concentration (hereafter also referred to as “IC50”) of the compound of the present invention was determined.
# [2] = test system: lipid peroxidation in brain homogenate; test: Test for evaluating tissue distribution: ex vivo inhibition of lipid peroxidation, brain; format: in vivo, rat; settings: SD male rats, oral 30 mg/kg, one hour after administration, fasting
# Procedure: (§1) (Test for Evaluating Tissue Distribution)
# (§2) The tissue distribution properties of the compound of the present invention were evaluated by measuring the ex vivo inhibition of lipid peroxidation.
# (§3) The compound of the present invention was dissolved in DMSO (final concentration: 20%), and then dissolved or suspended in a 0.1N hydrochloric acid physiological saline solution or a 1% polyethylene hardened castor oil (NIKOL HCO-60, manufactured by Nikko Chemicals Co., Ltd.)
# This solution was administered orally, at a dose of 30 mg/kg, to either a group of three SD male rats (Japan SLC, 6 weeks old) that had been feed-deprived for 24 hours, or a group of three SD male rats (Japan SLC, 6 weeks old) that had not been feed-deprived. […] Using the method disclosed above in the section relating to the “test for evaluating in vitro inhibition of lipid peroxidation”, the brains, and the retinas separated from the eyeballs were homogenized, and the quantity of lipid peroxide within each tissue homogenate was then measured.
# (§4) The inhibition rate of the compound of the present invention within each of the tissues was determined from the quantities of lipid peroxide generated in a control group (20% DMSO-0.1N hydrochloric acid physiological saline solution/1% polyethylene hardened castor oil) and in the group administered with the compound of the present invention.
# [3] = test system: lipid peroxidation in retina homogenate; test: Test for evaluating tissue distribution: ex vivo inhibition of lipid peroxidation, retina; format: in vivo, rat; settings: SD male rats, oral administration, one hour after administration, with feeding
# Procedure: as §1, §2, §3
# This solution was administered orally, at a dose of 30 mg/kg, to either a group of three SD male rats (Japan SLC, 6 weeks old) that had been feed-deprived for 24 hours, or a group of three SD male rats (Japan SLC, 6 weeks old) that had not been feed-deprived. One hour after administration and following anesthetization, the brains and eyeballs were removed. Using the method disclosed above in the section relating to the “test for evaluating in vitro inhibition of lipid peroxidation”, the brains, and the retinas separated from the eyeballs were homogenized, and the quantity of lipid peroxide within each tissue homogenate was then measured.
# as §4
# [4] = Test for evaluating oral absorption: serum concentration by HPLC; format: in vivo, rat; settings: SD male rats, oral 30 mg/kg, one hour after administration
# Procedure: (Test for Evaluating Oral Absorption)
# The absorption of the compound of the present invention upon oral administration was evaluated in rats.
# The compound of the present invention was dissolved in DMSO (final concentration: 20%), and then dissolved or suspended in a 0.1N hydrochloric acid physiological saline solution or a 1% polyethylene hardened castor oil (NIKOL HCO-60, manufactured by Nikko Chemicals Co., Ltd.).
# This solution was administered orally, at a dose of 30 mg/kg, to a group of three SD male rats (Japan SLC, 6 weeks old). One hour after administration and following anesthetization, blood was collected from the abdominal vena cava in a plastic blood collection tube containing a serum separating agent. The blood sample was left to stand for approximately one hour, and following clotting, the serum was obtained by conducting a centrifugal separation at 3,000 rpm for a period of 10 minutes. […] The quantity of the compound of the present invention that existed within this filtered solution was measured by high-performance liquid chromatography (HPLC), under the conditions shown below. […]
# The filtered solution for HPLC described in the previous paragraph was measured using the following representative conditions. […]
"concentration at 1 h ([4]; rat, serum) [nM]",serum concentration [4],SMILES,IC50 [1] [nM],ex vivo inhibition of lipid peroxidation inhibition rate (%) Brain [2],ex vivo inhibition of lipid peroxidation 50% inhibition quantity (ID50) Retina [3]
,,"Cc1c(C)c2c(c(CCc3ccccc3)c1N)CC(C)(C)O2 [Compound 83, 2,2,6,7-tetramethyl-4-phenylethyl-5-aminodihydrobenzofuran]",260,96 (fasting) %,67 (with feeding) mg/kg
2400,,"Cc1c(C)c2c(c(CNc3ccc(-c4ccn[nH]4)cc3)c1N)CC(C)(C)O2 [Compound 29, 5-(4-(5-amino-2,2,6,7-tetramethyldihydrobenzofuran-4-ylmethylamino)phenyl)pyrazole]",,,60 (with feeding) mg/kg
,Below detection limit,"Cc1c(C)c2c(c(CN)c1N)CC(C)(C)O2 [Compound R-1, reference compound]",300,,72 (with feeding) mg/kg
